Data on eleven compounds can be found in US7951954B2, “Bezothiazol derivatives as Beta2 adrenoreceptor agonists” (AstraZeneca AB, priority 2006, dated 2011).

Structures can show the parent of a compound that is named as a salt. Where two headings read alike, the source gives them in different places.

In one assay the target is T1, Adrenergic β2 (Homo sapiens, UniProt P07550).
T1 construct: endogenous in cells; host or cells: H292 cells
Put plainly: Adrenergic β2 mediated cAMP production in H292 cells (AlphaScreen cAMP detection). The assay is classed as cell-based. As to conditions: for EC50: cAMP production in H292 cells, 300 μM rolipram, 10 minutes with compound, read-out: β2 pEC50 (converted). Here is the method: Adrenergic β2 Mediated cAMP Production
H292 cells were grown in RPMI (Roswell Park Memorial Institute) medium containing, 10% (v/v) FBS (foetal bovine serum) and 2 mM L-glutamine. Cells were grown in 225 cm2 flasks containing 25 mL media in a humidified incubator at 37° C., 5% CO2. Cells were harvested from the flask and passaged at a 1 in 10 dilution once per week.
The media from flasks containing H292 cells was removed, rinsed with 10 mL PBS phosphate buffered saline) and replaced with 10 mL Accutase™ cell detachment solution. Flasks were incubated for 15 minutes in a humidified incubator at 37° C., 5% CO2. The cell suspension was counted and the cells re-suspended in RPMI media (containing 10% (v/v) FBS and 2 mM L-glutamine) at 0.05×10^6 cells per mL. 5000 cells in 100 μL were added to each well of a tissue-culture-treated 96-well plate and the cells incubated overnight in a humidified incubator at 37° C., 5% CO2. The culture media was removed, washed twice with 100 μL assay buffer and replaced with 50 μL assay buffer. Cells were rested at room temperature for 20 minutes after which time 25 μL of rolipram (1.2 mM made up in assay buffer containing 2.4% (v/v) dimethylsulphoxide) was added. Cells were incubated with rolipram for 10 minutes after which time test compounds (made up as ×4 concentrated stocks in assay buffer containing 4% (v/v) dimethylsulphoxide) were added and the cells were incubated for 10 minutes at room temperature. Final rolipram concentration in the assay was 300 μM and final vehicle concentration was 1.6% (v/v) dimethylsulphoxide. The reaction was stopped by removing supernatants, washing once with 100 μL assay buffer and replacing with 50 μL lysis buffer. The cell monolayer was frozen at −80° C. for 30 minutes (or overnight).
The concentration of cAMP (cyclic adenosine monophosphate) in the cell lysate was determined using the AlphaScreen™ methodology. The frozen cell plate was thawed for 20 minutes on a plate shaker then 10 μL of the cell lysate was transferred to a 96-well white plate. 40 μL of mixed AlphaScreen™ detection beads (containing equal volumes of donor beads (pre-incubated with biotinylated cAMP in the dark for 30 minutes) and acceptor beads), was added to each well and the plate incubated at room temperature for 10 hours in the dark. The AlphaScreen™ signal was measured using an EnVision spectrophotometer (Perkin-Elmer Inc.) with the recommended manufacturer's settings. cAMP concentrations were determined by reference to a calibration curve determined in the same experiment using standard cAMP concentrations (made up in lysis buffer in a 96-well tissue-culture-treated plate and frozen/thawed alongside the test samples) and detected using the same protocol. Concentration response curves for agonists were constructed to determine both the pEC50 and Intrinsic Activity.
A general note: Cyclic AMP is a second messenger, typically raised through Gs and lowered through Gi signalling.

For assay [1], the target named is T2, recombinant human adrenergic beta 1 receptors (Homo sapiens, UniProt P08588).
T2 construct: purchased Euroscreen
T2 sequence (P08588 whole entry): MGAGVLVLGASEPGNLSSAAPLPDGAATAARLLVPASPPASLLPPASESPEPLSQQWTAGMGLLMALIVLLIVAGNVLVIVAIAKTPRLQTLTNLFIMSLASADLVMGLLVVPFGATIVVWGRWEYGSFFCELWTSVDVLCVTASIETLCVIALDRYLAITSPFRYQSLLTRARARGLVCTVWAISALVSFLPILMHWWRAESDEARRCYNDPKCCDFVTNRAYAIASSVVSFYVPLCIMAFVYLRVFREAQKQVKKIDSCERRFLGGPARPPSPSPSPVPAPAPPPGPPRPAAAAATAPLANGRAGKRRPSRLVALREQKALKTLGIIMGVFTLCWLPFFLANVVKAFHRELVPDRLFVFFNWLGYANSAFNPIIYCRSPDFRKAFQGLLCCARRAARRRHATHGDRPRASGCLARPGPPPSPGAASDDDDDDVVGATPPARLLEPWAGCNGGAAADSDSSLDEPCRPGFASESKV
Put plainly: Adrenergic β1 selectivity assay, [125I]-Iodocyanopindolol binding to membranes. As to conditions: inhibition of [125I]-Iodocyanopindolol binding, read-out: β1 pEC50 (converted). Here is the method: Membranes containing recombinant human adrenergic beta 1 receptors were obtained from Euroscreen. These were diluted in Assay Buffer (50 mM HEPES, 1 mM EDTA, 120 mM NaCl, 0.1% gelatin, pH 7.4) to provide a final concentration of membranes that gave a clear window between maximum and minimum specific binding.
(§1) Assays were performed in U-bottomed 96-well polypropylene plates. 10 μL [^125I]-Iodocyanopindolol (0.036 nM final concentration) and 10 μL of test compound (10× final concentration) were added to each test well. For each assay plate 8 replicates were obtained for [^125I]-Iodocyanopindolol binding in the presence of 10 μL vehicle (10% (v/v) DMSO in Assay Buffer; defining maximum binding) or 10 μL Propranolol (10 μM final concentration; defining non-specific binding (NSB)). Membranes were then added to achieve a final volume of 100 μL. The plates were incubated for 2 hours at room temperature and then filtered onto PEI coated GF/B filter plates, pre-soaked for 1 hour in Assay Buffer, using a 96-well plate Tomtec cell harvester. Five washes with 250 μL wash buffer (50 mM HEPES, 1 mM EDTA, 120 mM NaCl, pH 7.4) were performed at 4° C. to remove unbound radioactivity. The plates were dried then sealed from underneath using Packard plate sealers and MicroScint-O (50 μL) was added to each well. The plates were sealed (TopSeal A) and filter-bound radioactivity was measured with a scintillation counter (TopCount, Packard BioScience) using a 3-minute counting protocol.
(§2) Total specific binding (B0) was determined by subtracting the mean NSB from the mean maximum binding. NSB values were also subtracted from values from all other wells.

The target in assay [2] is T3, recombinant human α1D receptor (Homo sapiens, UniProt P25100).
T3 construct: expressed in transfected cells; host or cells: HEK293
T3 sequence (P25100 1-572): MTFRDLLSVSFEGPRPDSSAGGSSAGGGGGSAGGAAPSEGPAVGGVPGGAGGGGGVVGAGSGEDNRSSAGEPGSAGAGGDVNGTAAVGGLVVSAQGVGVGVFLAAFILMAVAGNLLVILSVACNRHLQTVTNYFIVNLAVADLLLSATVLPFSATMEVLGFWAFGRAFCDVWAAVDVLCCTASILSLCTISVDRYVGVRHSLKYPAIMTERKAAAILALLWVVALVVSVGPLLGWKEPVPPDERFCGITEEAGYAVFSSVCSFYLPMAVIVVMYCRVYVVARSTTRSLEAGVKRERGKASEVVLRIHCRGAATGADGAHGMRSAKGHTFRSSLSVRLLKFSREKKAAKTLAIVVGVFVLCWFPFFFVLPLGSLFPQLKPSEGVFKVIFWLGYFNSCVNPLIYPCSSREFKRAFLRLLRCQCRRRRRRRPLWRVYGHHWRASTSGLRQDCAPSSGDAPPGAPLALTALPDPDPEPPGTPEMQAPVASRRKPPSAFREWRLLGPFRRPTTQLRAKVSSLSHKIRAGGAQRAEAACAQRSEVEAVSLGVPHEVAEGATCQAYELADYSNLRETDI
Put plainly: Adrenergic α1D selectivity assay, [3H]-prazosin binding to HEK293 membranes. As to conditions: inhibition of [3H]-prazosin binding, HEK293 membranes with recombinant human α1D; read-out: α1D pEC50 (converted). Here is the method: These were diluted in Assay Buffer (50 mM HEPES, 1 mM EDTA, 0.1% gelatin, pH 7.4) to provide a final concentration of membranes that gave a clear window between maximum and minimum specific binding.
as §1, with “10 μL [^125I]-Iodocyanopindolol (0.036 nM final concentration) and 10 μL of test compound (10× final concentration) were added to each test well.” left out, “[^3H]-prazosin” for “[^125I]-Iodocyanopindolol”, “BMY7378” for “Propranolol”, “EDTA,” for “EDTA, 120 mM NaCl,”
as §2

[3] abbreviates: fraction relative to the maximum activity determined for formoterol in each experiment, H292 cells, cAMP.

T1 sequence (P07550 whole entry): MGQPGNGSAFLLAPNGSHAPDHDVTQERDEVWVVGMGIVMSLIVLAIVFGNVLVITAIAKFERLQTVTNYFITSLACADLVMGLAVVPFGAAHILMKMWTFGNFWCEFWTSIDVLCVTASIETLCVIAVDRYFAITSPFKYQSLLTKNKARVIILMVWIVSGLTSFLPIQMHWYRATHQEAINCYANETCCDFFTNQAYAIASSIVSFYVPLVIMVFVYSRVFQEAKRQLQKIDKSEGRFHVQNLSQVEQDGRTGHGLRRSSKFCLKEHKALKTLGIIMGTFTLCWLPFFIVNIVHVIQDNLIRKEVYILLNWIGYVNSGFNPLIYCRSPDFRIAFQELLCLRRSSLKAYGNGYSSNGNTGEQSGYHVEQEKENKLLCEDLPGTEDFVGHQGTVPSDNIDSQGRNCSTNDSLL

Turning to `O=c1[nH]c2c(O)ccc([C@@H](O)CNCCc3cccc(CNCCc4c(Cl)cccc4Cl)c3)c2s1` [Example 1, 7-{2-[2-(3-{[2-(2,6-Dichloro-phenyl)-ethylamino]-methyl}-phenyl)-ethylamino]-1R-hydroxy-ethyl}-4-hydroxy-3H-benzothiazol-2-one bis-trifluoroacetate salt], at Adrenergic β2 (setting [3]), the “Intrinsic Activity” value turned out to be 0.8. Besides, the EC50 is 12.6 nM in assay [1] and 63.1 nM in assay [2].

For `O=c1[nH]c2c(O)ccc([C@@H](O)CNCCc3cccc(CNCc4ccccc4Cl)c3)c2s1` [Example 3, 7-[2-(2-{3-[(2-Chloro-benzylamino)-methyl]-phenyl}-ethylamino)-1R-hydroxy-ethyl]-4-hydroxy-3H-benzothiazol-2-one bis-trifluoroacetate salt], the “Intrinsic Activity” value on Adrenergic β2 was found to be 0.9. Further, the EC50 in assay [1] was 10 nM; in assay [2] it was 158 nM.

With `O=c1[nH]c2c(O)ccc([C@@H](O)CNCCc3cccc(CN[C@@H]4C[C@H]4c4ccc(F)cc4)c3)c2s1` [Example 10, 7-{2-[2-(3-{[2S-(4-Fluoro-phenyl)-cycloprop-1R-ylamino]-methyl}-phenyl)-ethylamino]-1R-hydroxy-ethyl}-4-hydroxy-3H-benzothiazol-2-one bis-trifluoroacetate salt], the EC50 at Adrenergic β2 was 0.316 nM; in assay [1] it was 200 nM; in assay [2], 316 nM. In addition, the “Intrinsic Activity” value at Adrenergic β2 (setting [3]) came to 1.0.

For `COCCNCc1cccc(CCNC[C@H](O)c2ccc(O)c3[nH]c(=O)sc23)c1` [Example 13, 4-Hydroxy-7-[1R-hydroxy-2-(2-{3-[(2-methoxy-ethylamino)-methyl]-phenyl}-ethylamino)-ethyl]-3H-benzothiazol-2-one di-hydrochloride salt], on Adrenergic β2, the “Intrinsic Activity” value was 1.0. Besides, the EC50 is 2 nM at Adrenergic β2, 158 nM in assay [1] and 501 nM in assay [2].

Consider `CC(Cc1cccc(CNCCc2c(Cl)cccc2Cl)c1)NC[C@H](O)c1ccc(O)c2[nH]c(=O)sc12` (stereo partly drawn) [Example 15, 7-{2-[2-(3-{[2-(2,6-Dichloro-phenyl)-ethylamino]-methyl}-phenyl)-1-methyl-ethylamino]-1R-hydroxy-ethyl}-4-hydroxy-3H-benzothiazol-2-one bis-trifluoroacetate salt], for which the “Intrinsic Activity” value on Adrenergic β2 is recorded as 0.8. Besides, the EC50 was 15.8 nM in assay [1] and 39.8 nM in assay [2].

On to `O=c1[nH]c2c(O)ccc([C@@H](O)CNCCc3ccc(CNCCc4ccccn4)cc3)c2s1` [Example 22, 4-Hydroxy-7-[1R-hydroxy-2-(2-{4-[(2-(2-pyridyl)ethylamino)methyl]phenyl}-ethylamino)ethyl]-3H-benzothiazol-2-one tris-trifluoroacetate salt], for which, at Adrenergic β2, the “Intrinsic Activity” value was found to be 1.0. Further, the figures for the EC50 in assay [1] and in assay [2] were 794 nM and 25.1 nM, respectively.

As to `COc1ccccc1CNCc1cccc(CCNC[C@H](O)c2ccc(O)c3[nH]c(=O)sc23)c1` [Example 36, 4-Hydroxy-7-[1R-hydroxy-2-(2-{3-[(2-methoxy-benzylamino)-methyl]-phenyl}-ethylamino)-ethyl]-3H-benzothiazol-2-one bis-trifluoroacetate salt], the “Intrinsic Activity” value on Adrenergic β2 came to 0.8. Further, the EC50 in assay [1] was 50.1 nM; in assay [2], 200 nM.

As to `O=c1[nH]c2c(O)ccc([C@@H](O)CNCCc3cccc(CNCCc4cccc[n+]4[O-])c3)c2s1` [Example 40, 4-Hydroxy-7-{1R-hydroxy-2-[2-(3-{[2-(1-oxy-pyridin-2-yl)-ethylamino]-methyl}-phenyl)-ethylamino]-ethyl}-3H-benzothiazol-2-one bis-trifluoroacetate salt], the figures for the EC50 (at Adrenergic β2; in assay [1]; in assay [2]) were 2.51 nM, 39.8 nM and 100 nM, respectively. Further, at Adrenergic β2 (setting [3]), the “Intrinsic Activity” value is on record as 0.8.

In the case of `COc1ccccc1CNCCc1cccc(CCNC[C@H](O)c2ccc(O)c3[nH]c(=O)sc23)c1` [Example 45, 4-Hydroxy-7-[1R-hydroxy-2-(2-{3-[2-(2-methoxy-benzylamino)-ethyl]-phenyl}-ethylamino)-ethyl]-3H-benzothiazol-2-one bis-hydrochloride salt], the “Intrinsic Activity” value on Adrenergic β2 amounted to 1.0. Also, the EC50 in assay [1] is 63.1 nM; in assay [2] it was 25.1 nM.

Turning to `O=c1[nH]c2c(O)ccc([C@@H](O)CNCCc3cccc(CN4CCCC4)c3)c2s1` [Example 51, 4-Hydroxy-7-{1R-hydroxy-2-[2-(3-pyrrolidin-1-ylmethyl-phenyl)-ethylamino]-ethyl}-3H-benzothiazol-2-one bis-hydrochloride salt], the EC50 on Adrenergic β2 was 1 nM; in assay [1], 1260 nM; in assay [2], 1000 nM. On Adrenergic β2 (setting [3]), the “Intrinsic Activity” value came out at 1.1.

Turning to `CC(C)NCc1ccc(CCNC[C@H](O)c2ccc(O)c3[nH]c(=O)sc23)cc1` [Example 53, 4-Hydroxy-7-{1R-hydroxy-2-[2-(4-isopropylaminomethyl)phenyl]ethylamino}-ethyl)-3H-benzothiazol-2-one bis-trifluoroacetate salt], the values for the EC50 (at Adrenergic β2; in assay [1]; in assay [2]) were 0.631 nM, 251 nM and 398 nM, respectively. Further, the “Intrinsic Activity” value at Adrenergic β2 (setting [3]) turned out to be 0.9.
